Measurements: article PMC6600414, “Pharmacokinetics and Tissue Distribution of a Novel Bis-Chelated Gold(I) Diphosphine Compound, Bis(2,3-bis(tert-butylmethylphosphino)Quinoxaline)Aurate(I), in Rats” (Molecules, 2019)

Columns and labels:
[1] = Pharmacokinetic study in SD rats after intravenous administration (plasma, LC-MS/MS); type: in vivo, Spague-Dawley rats; conditions: for AUC0-∞ / AUC0–t / C5min: rat plasma; for C5min: n = 6; for CL/F / V/F / t1/2: rat
Experimental: (§1) The analyte of GC20 in rat biological samples was extracted using one-step protein precipitation. 50 μL of rat plasma or rat tissue homogenate was treated with 250 μL methanol containing IS (375 ng/mL). Vortex for 5 min to completely precipitate the proteins contained in the biological matrix. The mixture was then centrifuged at 18,000 rpm for 10 min (Sorvall Biofuge Stratos, Waltham, MA, USA), and 5 μL supernatant was injected for analysis.
Twenty-four Spague-Dawley rats (twelve male and twelve female, 6–8 weeks old) were purchased from Shanghai SLAC Laboratory Animal Co., Ltd. (Shanghai, China). Animals were housed in an environment which controlled room temperature at 22 ± 2 °C and humidity at 55 ± 5%. Animals received 12/12 h light/dark cycle. Prior to the experiment, animals were fed a standard diet for one week to adapt to the laboratory conditions. Animal welfare and experimental procedures were strictly in accordance with the Guidelines of Animal Experiments of China Pharmaceutical University (Nanjing, China) and approved by the Animal Ethics Committee.
All rats were randomly divided into four groups, each group of six (three male and three female in each group). Three groups consisted of rats that received a single intravenous administration of GC20 at a single dose of 1, 2 or 4 mg/kg, while the fourth group consisted of rats that received a dose of 2 mg/kg on seven consecutive days. The doses for single administration was determined according to the pharmacodynamic doses and toxic doses of GC20 in animals reported in the literature. The dose for multiple administrations was selected from the intermediate dose of a single administration. Dose solutions were prepared with 10% glucose solution. Before administration, rats fasted for 12 h. Blood samples (150 μL) were collected into tubes containing heparin (as an anticoagulant) via the ophthalmic veins at 0 min (i.e., before dosing), 5 min, 10 min, 15 min, 30 min, 1 h, 2 h, 4 h, 6 h, 8 h, 12 h, 24 h, 36 h, 48 h and 72 h. Then, the tubes were centrifuged at 8000 rpm for 5 min to separate the plasma. Plasma samples were then stored at −80 °C until further analysis. The pharmacokinetic parameters were calculated by Phoenix WinNonlin 6.0 (Pharsight, Mountain View, CA, USA).

[2] = Tissue distribution in rats after single intravenous administration; type: in vivo, SD rats; conditions: single i.v. 2 mg/kg
Experimental: as §1
Eighteen SD rats (nine male and nine female, 6–8 weeks old) were purchased from Shanghai SLAC Laboratory Animal Co., Ltd. (Shanghai, China). After one week of adaptation, all rats were randomly divided into three groups, each group of six (three male and three female in each group). All rats were administrated GC20 solution at a single dose of 2 mg/kg vial the tail vein. The administered dose for tissue distribution was selected from the intermediate dose of single administration in the pharmacokinetic study. Blood samples were first collected via the ophthalmic veins and then rats were sacrificed to harvest tissues (i.e., heart, liver, spleen, lungs, kidneys, stomach, small intestine, brain, skin, muscle, fat, testes/ovaries, pancreas, thymus, and leg bones) promptly at 10 min, 2 h, or 12 h after dosing. To eliminate blood and other content, the tissues were thoroughly rinsed in water. Each tissue sample was homogenized into ten-fold volumes of water and then stored at −80 °C until further analysis.

[3] = Stability of GC20 in rat plasma under different storage conditions; type: in vitro ADME; conditions: for Measured Concentration: n = 6
Experimental: Extraction recovery was calculated by comparing the peak areas of extraction samples and post-extraction spiked samples. Matrix effect was evaluated by comparing the peak areas of post-extraction spiked samples and pure standard solutions. Post-extraction spiked samples were prepared as follows: Adding standard working solution into the mixed solution after protein precipitation of blank plasma to yield equivalent concentrations to corresponding extraction samples. Six replicates at three concentration levels were used for stability validation under a variety of storage and handling conditions. Samples were subjected to three freeze-thaw cycles, frozen at −80 °C for 7 days and 60 days, and storing at room temperature for 12 h. Post-preparative stability was evaluated by reanalyzing post-extraction samples kept in the autosampler at 4 °C for 48 h.

[4] = tested on: broad spectrum of cancer cell lines, including cisplatin-resistant ones; design: method as in PMID 23362983; conditions: cited from earlier work
[5] = design: method as in PMID 23362983; conditions: cited from earlier work
[6] = multiple dose i.v. 2 mg/kg on seven consecutive days
[7] = post-extraction samples, autosampler 48 h at 4 °C, spiked 50 ng/mL
[8] = post-extraction samples, autosampler 48 h at 4 °C, spiked 1000 ng/mL
[9] = rat plasma, frozen (−80 °C) for 7 days, spiked 50 ng/mL
[10] = rat plasma, frozen (−80 °C) for 7 days, spiked 1000 ng/mL
[11] = rat plasma, frozen (−80 °C) for 60 days, spiked 2 ng/mL
[12] = rat plasma, frozen (−80 °C) for 60 days, spiked 50 ng/mL
[13] = rat plasma, frozen (−80 °C) for 60 days, spiked 1000 ng/mL
[14] = rat plasma, room temperature for 12 h, spiked 2 ng/mL
[15] = rat plasma, room temperature for 12 h, spiked 50 ng/mL
[16] = rat plasma, room temperature for 12 h, spiked 1000 ng/mL
[17] = rat plasma, three freeze-thaw cycles, spiked 2 ng/mL
[18] = rat plasma, three freeze-thaw cycles, spiked 50 ng/mL
[19] = rat plasma, three freeze-thaw cycles, spiked 1000 ng/mL

AUC0-∞ [1, 6]: 6936.7 ± 1005.4 ng·h/mL
AUC0–t ([1]; multiple dose i.v. 2 mg/kg on seven consecutive days, 0–24 h): 4551.2 ± 440.3 ^# h*ng/mL
C5min [1, 6]: 3645.8 ± 388.3 ng/mL
AUC0-∞ ([1]; single dose i.v. 1 mg/kg): 1457.0 ± 354.5 ng·h/mL
AUC0–t ([1]; single dose i.v. 1 mg/kg, 0–72 h): 1419.9 ± 345.5 ng·h/mL
C5min ([1]; single dose i.v. 1 mg/kg): 1564.6 ± 387.5 ng/mL
AUC0-∞ ([1]; single dose i.v. 2 mg/kg): 2540.5 ± 308.6 ng·h/mL
AUC0–t ([1]; single dose i.v. 2 mg/kg, 0–72 h): 2466.4 ± 298.3 ng·h/mL
C5min ([1]; single dose i.v. 2 mg/kg): 2657.6 ± 632.7 ng/mL
AUC0-∞ ([1]; single dose i.v. 4 mg/kg): 7562.2 ± 2709.6 ng·h/mL
AUC0–t ([1]; single dose i.v. 4 mg/kg, 0–72 h): 7237.1 ± 2695.0 ng·h/mL
C5min ([1]; single dose i.v. 4 mg/kg): 5902.6 ± 1955.2 ng/mL
CL/F [1, 6]: 4.83 ± 0.67 mL/min/kg
V/F [1, 6]: 10.6 ± 1.7 L/kg
t1/2 [1, 6]: 25.1 ± 3.0 h
CL/F ([1]; single dose i.v. 1 mg/kg): 12 ± 3.17 mL/min/kg
V/F ([1]; single dose i.v. 1 mg/kg): 11.89 ± 3.35 L/kg
t1/2 ([1]; single dose i.v. 1 mg/kg): 11.33 ± 0.57 h
CL/F ([1]; single dose i.v. 2 mg/kg): 13.3 ± 1.67 mL/min/kg
V/F ([1]; single dose i.v. 2 mg/kg): 13.00 ± 2.39 L/kg
t1/2 ([1]; single dose i.v. 2 mg/kg): 11.24 ± 0.75 h
CL/F ([1]; single dose i.v. 4 mg/kg): 10 ± 4 mL/min/kg
V/F ([1]; single dose i.v. 4 mg/kg): 11.11 ± 5.28 L/kg
t1/2 ([1]; single dose i.v. 4 mg/kg): 12.58 ± 1.80 h
accumulation after multiple doses ([1]; rats, consecutive administration for 7 days): accumulated in rats after multiple doses
elimination half-life after multiple doses relative to single administration ([1]; rats, i.v. 2 mg/kg for 7 days vs single administration): twice that after a single administration
elimination half-life ([1]; rats, single administration of low, medium and high doses (i.v.)): 11 to 13 h
tissue with the lowest concentration ([2]; 10 min, 2 h, 12 h): lowest in the brain
tissues with the highest concentrations ([2]; 10 min, 2 h, 12 h): lung, spleen, liver, and pancreas
time of highest tissue concentration ([2]; spleen, liver, kidney and heart): 2 h
Measured Concentration ([3]; post-extraction samples, autosampler 48 h at 4 °C, spiked 2 ng/mL): 1.8 ± 0.0 ng/mL
Accuracy (RE%) [3, 7]: −9.5%
Measured Concentration [3, 7]: 45.2 ± 0.1 ng/mL
Accuracy (RE%) [3, 8]: −9.9%
Measured Concentration [3, 8]: 901.3 ± 17.1 ng/mL
Accuracy (RE%) ([3]; rat plasma, frozen (−80 °C) for 7 days, spiked 2 ng/mL): 8.2%
Accuracy (RE%) [3, 9]: 4.1%
Measured Concentration [3, 9]: 52.0 ± 0.9 ng/mL
Accuracy (RE%) [3, 10]: 3.1%
Measured Concentration [3, 10]: 1030.5 ± 15.9 ng/mL
Accuracy (RE%) [3, 11]: −8.9%
Measured Concentration [3, 11]: 1.8 ± 0.1 ng/mL
Accuracy (RE%) [3, 12]: −5.4%
Measured Concentration [3, 12]: 47.3 ± 0.6 ng/mL
Accuracy (RE%) [3, 13]: −3.0%
Measured Concentration [3, 13]: 970.1 ± 27.3 ng/mL
Accuracy (RE%) [3, 14]: −9.2%
Measured Concentration [3, 14]: 1.8 ± 0.1 ng/mL
Accuracy (RE%) [3, 15]: 2.0%
Measured Concentration [3, 15]: 51.0 ± 0.4 ng/mL
Accuracy (RE%) [3, 16]: 2.1%
Measured Concentration [3, 16]: 1020.7 ± 23.6 ng/mL
Accuracy (RE%) [3, 17]: 8.7%
Measured Concentration [3, 17]: 2.2 ± 0.1 ng/mL
Accuracy (RE%) [3, 18]: 2.3%
Measured Concentration [3, 18]: 51.1 ± 0.3 ng/mL
Accuracy (RE%) [3, 19]: 0.2%
Measured Concentration [3, 19]: 1001.8 ± 19.0 ng/mL
stability under typical sample storage and processing conditions ([3]; rat plasma, room temperature 12 h, −80 °C 7 and 60 days, three freeze-thaw cycles, autosampler 4 °C 48 h): stable
SMILES: CC(C)(C)[P+]1(C)c2nc3ccccc3nc2[P+](C)(C(C)(C)C)[Au-3]12[P+](C)(C(C)(C)C)c1nc3ccccc3nc1[P+]2(C)C(C)(C)C (centres unmarked) [GC20, Bis(2,3-bis(tert-butylmethylphosphino)quinoxaline)aurate(I)]
inhibitory effect on proliferation ([4]; broad spectrum of cancer cell lines, including cisplatin-resistant ones): strong inhibitory effect
selectivity between cancer cells and normal cells [4]: remarkable selectivity
toxicity in animal models as compared to cisplatin [5]: lower toxicity
